Like-named read-outs stand apart in the source and are kept apart here.
What was measured:
Type in all cases: in vivo, human
[1] = Phase I study, pharmacokinetic parameters after oral single dose and daily dose for 7 days; conditions: for AUC(0-t) / Cmax at 7 days / Tmax at 7 days / half-life at 7 days / Cmax / Tmax / half-life: human, oral; for AUC(0-t): po, read-out: AUC 0-t area under the curve, between time 0 and the last measurable concentration; for Cmax at 7 days / Cmax: read-out: Cmax maximum concentration; for Tmax at 7 days / Tmax: read-out: Tmax time required to attain maximum concentration
Procedure: The doses tested were 10, 20, 40 and 80 mg of tenatoprazole.
In this table, the abbreviations employed have the following meaning:
Cmax maximum concentration
Tmax time required to attain maximum concentration
T1/2 elimination half-life
AUC0-t area under the curve, between time 0 and the last measurable concentration.
The AUC0-inf value was calculated by extrapolation.

[2] = tested on: patients with symptoms of functional dyspepsia; experiment: Clinical treatment of patients with symptoms of functional dyspepsia; set-up: Safety: key: +: moderate; ++: ranging from moderate to highly favorable; +++: highly favorable; conditions: oral
From the text: (§1) Some clinical examples are given below, which show the effects of treatment on patients suffering from gastroesophageal reflux or dyspepsia, treated by the oral administration of tenatoprazole.

[3] = tested on: patients with gastroesophageal reflux symptoms; experiment: Clinical treatment of patients with gastroesophageal reflux symptoms; conditions: 20 mg tablet daily;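 on Evolution of symptom: one to three plus signs grade improvement from moderate to highly favorable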
Procedure: as §1
Treatment consisted in the daily administration of a tablet containing 20 mg tenatoprazole.

[4] = tested on: patients with atypical symptoms of gastroesophageal reflux; experiment: Clinical treatment of patients with atypical symptoms of gastroesophageal reflux; set-up: Safety: key: +: moderate; ++: ranging from moderate to highly favorable; +++: highly favorable; conditions: oral; on Evolution of symptom: key: +: moderate; ++: ranging from moderate to highly favorable; +++: highly favorable
From the text: as §1

[5] = in vivo, repeated dose (7 days) 10 mg daily
[6] = in vivo, repeated dose (7 days) 20 mg daily
[7] = in vivo, repeated dose (7 days) 40 mg daily
[8] = in vivo, repeated dose (7 days) 80 mg daily
[9] = patient 25, epigastric discomfort, 12 weeks
[10] = patient 28, distension, 4 weeks
[11] = patient 30, nocturnal heartburn, 8 weeks
[12] = patient 34, early satiety, 8 weeks
[13] = patient 36, epigastric discomfort, 8 weeks
[14] = patient 38, epigastric pain, 8 weeks
[15] = patient 38, sensation of gastric fullness, 8 weeks
[16] = patient 39, epigastric pain, 4 weeks
[17] = patient 42, early satiety, 6 weeks
[18] = patient 45, epigastric pain, 6 weeks
[19] = patient 26, asthma, link with GERD ++, 12 weeks
[20] = patient 27, dental caries, link with GERD +, 12 weeks
[21] = patient 29, noct. cough, link with GERD +++, 7 weeks
[22] = patient 31, pharyngitis, link with GERD +, 8 weeks
[23] = patient 33, asthma, link with GERD ++, 12 weeks
[24] = patient 34, dysphonia, link with GERD ++, 4 weeks
[25] = patient 34, pharyngitis, link with GERD ++, 8 weeks
[26] = patient 36, dysphonia, link with GERD ++, 5 weeks
[27] = patient 36, noct. cough, link with GERD ++, 8 weeks
[28] = patient 44, pharyngitis, link with GERD +, 4 weeks
[29] = patient 45, pseudo-angina, link with GERD ++, 8 weeks
[30] = patient 49, pseudo-angina, link with GERD ++, 12 weeks

In the case of `COc1ccc2[nH]c([S+]([O-])Cc3ncc(C)c(OC)c3C)nc2n1` (stereo not drawn) [tenatoprazole, 5-methoxy-2-[[(4-methoxy-3,5-dimethyl-2-pyridyl)methyl]sulfinyl]imidazo[4,5-b]pyridine], the AUC(0-t) ([1]; in vivo, 10 mg, repeated dose (7 days) 10 mg daily) was 13000 ng·h/mL, the AUC(0-t) ([1]; in vivo, 10 mg, single dose 10 mg) was 8000 ng·h/mL and the AUC(0-t) ([1]; in vivo, 20 mg, repeated dose (7 days) 20 mg daily) was 36000 ng·h/mL. The AUC(0-t) ([1]; in vivo, 20 mg, single dose 20 mg) was 24000 ng·h/mL, the AUC(0-t) ([1]; in vivo, 40 mg, repeated dose (7 days) 40 mg daily) was 75000 ng·h/mL and the AUC(0-t) ([1]; in vivo, 40 mg, single dose 40 mg) was 43000 ng·h/mL. The AUC(0-t) ([1]; in vivo, 80 mg, repeated dose (7 days) 80 mg daily) was 218000 ng·h/mL, the AUC(0-t) ([1]; in vivo, 80 mg, single dose 80 mg) was 97000 ng·h/mL and the Cmax at 7 days [1, 5] was 1600 ng/mL. The Tmax at 7 days [1, 5] was 3 h, the half-life at 7 days ([1]; in vivo, repeated dose (7 days) 10 mg daily, read-out: T½ elimination half-life (converted)) was 5 h and the Cmax at 7 days [1, 6] was 3000 ng/mL. It also gave a Tmax at 7 days [1, 6] of 2 h, a half-life at 7 days ([1]; in vivo, repeated dose (7 days) 20 mg daily, read-out: T½ elimination half-life (converted)) of 8 h and a Cmax at 7 days [1, 7] of 5500 ng/mL. The Tmax at 7 days [1, 7] was 3 h, the half-life at 7 days ([1]; in vivo, repeated dose (7 days) 40 mg daily, read-out: T½ elimination half-life (converted)) was 9 h and the Cmax at 7 days [1, 8] was 11800 ng/mL. For the same compound, the Tmax at 7 days [1, 8] was 2 h, the half-life at 7 days ([1]; in vivo, repeated dose (7 days) 80 mg daily, read-out: T½ elimination half-life (converted)) was 9.2 h and the Cmax ([1]; in vivo, single dose 10 mg) was 900 ng/mL. The Tmax ([1]; in vivo, single dose 10 mg) was 4 h, the half-life ([1]; in vivo, single dose 10 mg, read-out: T½ elimination half-life (converted)) was 5 h and the Cmax ([1]; in vivo, single dose 20 mg) was 2400 ng/mL. It also gave a Tmax ([1]; in vivo, single dose 20 mg) of 4 h, a Cmax ([1]; in vivo, single dose 40 mg) of 5300 ng/mL and a Tmax ([1]; in vivo, single dose 40 mg) of 3 h. For the same compound, the half-life ([1]; in vivo, single dose 40 mg, read-out: T½ elimination half-life (converted)) was 6 h, the Cmax ([1]; in vivo, single dose 80 mg) was 8300 ng/mL and the Tmax ([1]; in vivo, single dose 80 mg) was 3 h. It also gave a half-life ([1]; in vivo, single dose 80 mg, read-out: T½ elimination half-life (converted)) of 7 h, a half-life ([1]; plasma, after a single dose, depending on the dose (10-80 mg), read-out: mean elimination half-lives) of 5 to 6 h and a half-life at 7 days ([1]; plasma, after administration for seven days, depending on the dose (10-80 mg), read-out: mean elimination half-lives) of 5 to 9.5 h. For the same compound, the “half-life compared with other proton pump inhibitors (omeprazole, esomeprazole)” value ([1]; in vivo) was “some seven times longer”, the “dose dependence of Cmax, AUC0-t and AUC0-inf” value ([1]; single or repeated administration, 10-80 mg) was “increased in a linear fashion” and the Evolution of symptom [2, 9] was “++”. For the same compound, the Safety [2, 9] was “+++”, the Evolution of symptom [2, 10] was “+” and the Safety [2, 10] was “+++”. The Evolution of symptom [2, 11] was “+++”, the Safety [2, 11] was “+++” and the Evolution of symptom [2, 12] was “+++”. The Safety [2, 12] was “+++”, the Evolution of symptom ([2]; patient 35, heartburn, 8 weeks) was “+++” and the Safety ([2]; patient 35, heartburn, 8 weeks) was “+++”. For the same compound, the Evolution of symptom [2, 13] was “+++”, the Safety [2, 13] was “++” and the Evolution of symptom [2, 14] was “+++”. For the same compound, the Safety [2, 14] was “++”, the Evolution of symptom [2, 15] was “+++” and the Safety [2, 15] was “+++”. For the same compound, the Evolution of symptom [2, 16] was “++”, the Safety [2, 16] was “++” and the Evolution of symptom ([2]; patient 41, heartburn, 6 weeks) was “+++”. The Safety ([2]; patient 41, heartburn, 6 weeks) was “+++”, the Evolution of symptom [2, 17] was “++” and the Safety [2, 17] was “+++”. The Evolution of symptom ([2]; patient 44, nausea, 10 weeks) was “+++”, the Safety ([2]; patient 44, nausea, 10 weeks) was “+++” and the Evolution of symptom [2, 18] was “+++”. The Safety [2, 18] was “++”, the Evolution of symptom ([2]; patient 47, nausea, 4 weeks) was “++” and the Safety ([2]; patient 47, nausea, 4 weeks) was “+++”. The Evolution of symptom ([2]; patient 49, nausea, 8 weeks) was “++”, the Safety ([2]; patient 49, nausea, 8 weeks) was “+++” and the “cases in which treatment was perfectly tolerated” value ([3]; patients of Table 2) was 12 out of 14. The “evolution observed in symptoms, overall” value ([3]; patients of Table 2) was “generally very favorable”, the Evolution of symptom ([3]; patient 25, heartburn, 12 weeks) was “+++” and the Evolution of symptom ([3]; patient 28, nocturnal heartburn, 4 weeks) was “+++”. The Evolution of symptom [3, 11] was “+++”, the Evolution of symptom ([3]; patient 34, heartburn, 8 weeks) was “+++” and the Evolution of symptom ([3]; patient 35, nocturnal heartburn, 4 weeks) was “++”. The Evolution of symptom ([3]; patient 36, regurgitation, 8 weeks) was “+++”, the Evolution of symptom ([3]; patient 38, heartburn, 8 weeks) was “+++” and the Evolution of symptom ([3]; patient 38, nocturnal heartburn, 8 weeks) was “+++”. The Evolution of symptom ([3]; patient 39, nocturnal heartburn, 4 weeks) was “+”, the Evolution of symptom ([3]; patient 41, heartburn, 8 weeks) was “+++” and the Evolution of symptom ([3]; patient 42, heartburn, 8 weeks) was “++”. For the same compound, the Evolution of symptom ([3]; patient 45, nocturnal heartburn, 8 weeks) was “+++”, the Evolution of symptom ([3]; patient 47, nocturnal heartburn, 8 weeks) was “++” and the Evolution of symptom ([3]; patient 49, regurgitation, 8 weeks) was “++”. The Evolution of symptom [4, 19] was “+++”, the Safety [4, 19] was “+++” and the Evolution of symptom [4, 20] was 0. The Safety [4, 20] was “++”, the Evolution of symptom [4, 21] was “+++” and the Safety [4, 21] was “+++”. For the same compound, the Evolution of symptom [4, 22] was “+”, the Safety [4, 22] was “+++” and the Evolution of symptom [4, 23] was “++”. The Safety [4, 23] was “+++”, the Evolution of symptom [4, 24] was “++” and the Safety [4, 24] was “+++”. The Evolution of symptom [4, 25] was “++”, the Safety [4, 25] was “+++” and the Evolution of symptom [4, 26] was “+++”. For the same compound, the Safety [4, 26] was “+++”, the Evolution of symptom [4, 27] was “+++” and the Safety [4, 27] was “++”. The Evolution of symptom [4, 28] was “++”, the Safety [4, 28] was “+++” and the Evolution of symptom [4, 29] was “+++”. The Safety [4, 29] was “+++”, the Evolution of symptom [4, 30] was “+++” and the Safety [4, 30] was “+++”.

Reference: patent US20110152314A1, “USE OF TENATOPRAZOLE FOR THE TREATMENT OF GASTROESOPHAGEAL REFLUX DISEASE” (SIDEM PHARMA, priority 2002, published 2011)
